Results published in paper PMC4092069, “Structural and Functional Characterization of DUF1471 Domains of Salmonella Proteins SrfN, YdgH/SssB, and YahO” (PLoS ONE, 2014).
Counter-ions that a name gives are not always drawn.

Tests used:
[1] = target: T1, SrfN (Salmonella enterica, UniProt Q7CR88); assay: 2-D 1H-15N HSQC NMR titration, chemical shift perturbation; format: binding; conditions: 0.5 mM SrfN monomer, oxyanion site, weak
T1 construct: gene STM0082; full-length synthetic gene in pGS-21a, C-terminal 6xHis tag kept, signal peptide (1-21) cleaved in E. coli, mature residues 22-96; 15N or 13C,15N labelled

[2] = target: T1, SrfN; assay: as above; format: binding
[3] = target: the molecule itself; assay: SEC-MALS

O=C(O)C1=C[C@H](O)[C@@H](OS(=O)(=O)O)[C@H](O[C@H]2[C@H](O)[C@@H](NS(=O)(=O)O)C(O)O[C@@H]2COS(=O)(=O)O)O1 (stereo partly drawn) [heparin disaccharide, α-ΔUA-2S-[1→4]-GlcNS-6S]
2-D 1H-15N HSQC NMR titration, chemical shift perturbation ([1]; 5 mM disaccharide (20:1 to dimer)): The interaction with heparin disaccharide appears to be somewhat weaker

O=S(=O)(O)O [sodium sulfate]
2-D 1H-15N HSQC NMR titration, chemical shift perturbation ([1]; neutral pH, 100-200 mM Na2SO4 (400-800:1 to dimer)): a region on the surface which interacts only weakly with sulfate ion at neutral pH

O=S(=O)(O)OC[C@H]1O[C@@](COS(=O)(=O)O)(O[C@H]2O[C@H](COS(=O)(=O)O)[C@@H](OS(=O)(=O)O)[C@H](OS(=O)(=O)O)[C@H]2OS(=O)(=O)O)[C@@H](OS(=O)(=O)O)[C@@H]1OS(=O)(=O)O [sucrose octasulfate]
Kd [2]: < 500 µM

B1: SrfN (STM0082) of Salmonella enterica serovar Typhimurium LT2, processed form lacking the 21 N-termi (natural protein)
chain: AEQVSKQEISHFKLVKVGTINVSQSGGQISSPSDLREKLSELADAKGGKYYHIIAAREHGPNFEAVAEVYNDATK
modifications: uniform 15N or 13C,15N isotope labelling in the NMR samples
notes: also called StR109; SrfN dimer
stoichiometry N [3]: 2
